{"source": "patent US9260439B2", "about": "“Dihydropyrrolopyrimidine derivatives” (PFIZER INC., priority 2014, dated 2016)", "target": "truncated PI3Kα (p110α/iSH2 p85α) (Homo sapiens (Human), UniProt P42336)", "sequence (P42336 whole entry, the tested form may be a part)": "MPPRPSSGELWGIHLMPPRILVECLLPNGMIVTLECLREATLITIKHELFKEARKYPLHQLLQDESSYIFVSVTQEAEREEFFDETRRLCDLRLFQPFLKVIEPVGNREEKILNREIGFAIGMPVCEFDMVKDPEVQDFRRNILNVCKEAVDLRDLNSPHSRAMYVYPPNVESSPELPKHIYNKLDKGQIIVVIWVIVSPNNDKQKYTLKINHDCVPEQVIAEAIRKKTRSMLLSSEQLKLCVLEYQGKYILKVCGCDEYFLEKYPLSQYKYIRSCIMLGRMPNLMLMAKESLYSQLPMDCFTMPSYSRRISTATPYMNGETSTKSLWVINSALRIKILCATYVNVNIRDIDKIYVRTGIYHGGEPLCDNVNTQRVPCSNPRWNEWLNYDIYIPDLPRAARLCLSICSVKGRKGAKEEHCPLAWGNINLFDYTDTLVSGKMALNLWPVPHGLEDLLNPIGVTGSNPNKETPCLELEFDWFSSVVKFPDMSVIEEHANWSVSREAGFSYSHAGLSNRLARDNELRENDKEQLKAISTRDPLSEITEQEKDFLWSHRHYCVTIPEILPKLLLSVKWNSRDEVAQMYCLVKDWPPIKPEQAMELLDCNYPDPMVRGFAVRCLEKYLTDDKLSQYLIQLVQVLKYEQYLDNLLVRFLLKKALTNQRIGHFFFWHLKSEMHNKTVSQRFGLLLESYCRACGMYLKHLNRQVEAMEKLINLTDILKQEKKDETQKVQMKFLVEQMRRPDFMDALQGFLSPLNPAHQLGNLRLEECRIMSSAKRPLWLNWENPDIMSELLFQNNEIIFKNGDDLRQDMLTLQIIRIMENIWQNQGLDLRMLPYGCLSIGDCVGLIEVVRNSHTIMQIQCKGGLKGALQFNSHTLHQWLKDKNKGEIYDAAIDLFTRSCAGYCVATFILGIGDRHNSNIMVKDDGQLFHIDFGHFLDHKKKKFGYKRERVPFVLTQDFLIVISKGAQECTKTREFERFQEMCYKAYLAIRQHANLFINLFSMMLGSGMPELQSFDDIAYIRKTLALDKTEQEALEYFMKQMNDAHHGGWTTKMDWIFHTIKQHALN", "test": "PI3KA_Act fluorescence polarization kinase assay (Ki)", "assay_type": "biochemical", "details": "1 mM ATP", "outline": "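Ki values result from fitting fluorescence polarization signals to the Morrison equation for tight-binding competitive inhibitors. The detector was GST-Grp1 PH domain with TAMRA-PIP3, read after a 30 min room-temperature reaction of 0.5 nM truncated PI3Kα and 30 μM PIP2 at pH 7.4 in HEPES/NaCl/MgCl2/DTT/CHAPS buffer. Compounds were tested as 12-point 3-fold dilutions from 3 μM.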"}
{"smiles": "CN(C)CC(=O)N1CC[C@@](C)(N2CCc3c(-c4cnc(N)nc4)nc(N4CCOCC4)nc32)C1", "note": "[Example 300, 1-{(3R)-3-[4-(2-aminopyrimidin-5-yl)-2-(morpholin-4-yl)-5,6-dihydro-7H-pyrrolo[2,3-d]pyrimidin-7-yl]-3-methylpyrrolidin-1-yl}-2-(dimethylamino) ethanone]", "values": [{"measurement": "PI3KA_Act Ki", "result": 0.669, "unit": "nM"}]}
{"smiles": "C[C@H](C(=O)N1CC[C@](C)(N2CCc3c(-c4cnc(N)nc4)nc(N4CCOCC4)nc32)C1)N(C)C", "note": "[Example 301, (2R)-1-{(3S)-3-[4-(2-aminopyrimidin-5-yl)-2-(morpholin-4-yl)-5,6-dihydro-7H-pyrrolo[2,3-d]pyrimidin-7-yl]-3-methylpyrrolidin-1-yl}-2-(dimethylamino) propan-1-one]", "values": [{"measurement": "PI3KA_Act Ki", "result": 0.073, "unit": "nM"}]}
{"smiles": "CC(C(=O)N1CC[C@](C)(N2CCc3c(-c4cnc(N)nc4)nc(N4CCOCC4)nc32)C1)N(C)C", "note": "(stereo partly drawn) [Example 302, 1-{(3S)-3-[4-(2-aminopyrimidin-5-yl)-2-(morpholin-4-yl)-5,6-dihydro-7H-pyrrolo[2,3-d]pyrimidin-7-yl]-3-methylpyrrolidin-1-yl}-2-(dimethylamino) propan-1-one]", "values": [{"measurement": "PI3KA_Act Ki", "result": 0.038, "unit": "nM"}]}
{"smiles": "CNC(C)(C)C(=O)N1CC[C@](C)(N2CCc3c(-c4cnc(N)nc4)nc(N4CCOCC4)nc32)C1.Cl", "note": "[Example 303, 1-{(3S)-3-[4-(2-aminopyrimidin-5-yl)-2-(morpholin-4-yl)-5,6-dihydro-7H-pyrrolo[2,3-d]pyrimidin-7-yl]-3-methylpyrrolidin-1-yl}-2-methyl-2-(methylamino) propan-1-one hydrochloride]", "values": [{"measurement": "PI3KA_Act Ki", "result": 0.025, "unit": "nM"}]}
{"smiles": "CN(C)C(C)(C)C(=O)N1CC[C@](C)(N2CCc3c(-c4cnc(N)nc4)nc(N4CCOCC4)nc32)C1", "note": "[Example 304, 1-{(3S)-3-[4-(2-aminopyrimidin-5-yl)-2-(morpholin-4-yl)-5,6-dihydro-7H-pyrrolo[2,3-d]pyrimidin-7-yl]-3-methylpyrrolidin-1-yl}-2-(dimethylamino)-2-methylpropan-1-one]", "values": [{"measurement": "PI3KA_Act Ki", "result": "<0.018", "unit": "nM"}]}
{"smiles": "CC(C)(CN)C(=O)N1CC[C@](C)(N2CCc3c(-c4cnc(N)nc4)nc(N4CCOCC4)nc32)C1.Cl", "note": "[Example 305, 3-amino-1-{(3S)-3-[4-(2-aminopyrimidin-5-yl)-2-(morpholin-4-yl)-5,6-dihydro-7H-pyrrolo[2,3-d]pyrimidin-7-yl]-3-methylpyrrolidin-1-yl}-2,2-dimethylpropan-1-one hydrochloride]", "values": [{"measurement": "PI3KA_Act Ki", "result": 0.036, "unit": "nM"}]}
{"smiles": "CNCC(C)(C)C(=O)N1CC[C@](C)(N2CCc3c(-c4cnc(N)nc4)nc(N4CCOCC4)nc32)C1.Cl", "note": "[Example 306, 1-{(3S)-3-[4-(2-aminopyrimidin-5-yl)-2-(morpholin-4-yl)-5,6-dihydro-7H-pyrrolo[2,3-d]pyrimidin-7-yl]-3-methylpyrrolidin-1-yl}-2,2-dimethyl-3-(methylamino) propan-1-one hydrochloride]", "values": [{"measurement": "PI3KA_Act Ki", "result": "<0.018", "unit": "nM"}]}
{"smiles": "C[C@]1(N2CCc3c(-c4cnc(N)nc4)nc(N4CCOCC4)nc32)CCN(C(=O)C(F)(F)CN)C1.Cl", "note": "[Example 307, 3-amino-1-{(3S)-3-[4-(2-aminopyrimidin-5-yl)-2-(morpholin-4-yl)-5,6-dihydro-7H-pyrrolo[2,3-d]pyrimidin-7-yl]-3-methylpyrrolidin-1-yl}-2,2-difluoropropan-1-one hydrochloride]", "values": [{"measurement": "PI3KA_Act Ki", "result": "<0.018", "unit": "nM"}]}
{"smiles": "C[C@@]1(N2CCc3c(-c4cnc(N)nc4)nc(N4CCOCC4)nc32)CCN(C(=O)CC(F)(F)F)C1", "note": "[Example 308, 1-{(3R)-3-[4-(2-aminopyrimidin-5-yl)-2-(morpholin-4-yl)-5,6-dihydro-7H-pyrrolo[2,3-d]pyrimidin-7-yl]-3-methylpyrrolidin-1-yl}-3,3,3-trifluoropropan-1-one]", "values": [{"measurement": "PI3KA_Act Ki", "result": 0.126, "unit": "nM"}]}
{"smiles": "C[C@]1(N2CCc3c(-c4cnc(N)nc4)nc(N4CCOCC4)nc32)CCN(C(=O)CC(F)(F)F)C1", "note": "[Example 309, 1-{(3S)-3-[4-(2-aminopyrimidin-5-yl)-2-(morpholin-4-yl)-5,6-dihydro-7H-pyrrolo[2,3-d]pyrimidin-7-yl]-3-methylpyrrolidin-1-yl}-3,3,3-trifluoropropan-1-one]", "values": [{"measurement": "PI3KA_Act Ki", "result": 0.056, "unit": "nM"}]}
{"smiles": "CC(C)[C@@H](N)C(=O)N1CC[C@](C)(N2CCc3c(-c4cnc(N)nc4)nc(N4CCOCC4)nc32)C1.Cl", "note": "[Example 310, (2R)-2-amino-1-{(3S)-3-[4-(2-aminopyrimidin-5-yl)-2-(morpholin-4-yl)-5,6-dihydro-7H-pyrrolo[2,3-d]pyrimidin-7-yl]-3-methylpyrrolidin-1-yl}-3-methylbutan-1-one hydrochloride]", "values": [{"measurement": "PI3KA_Act Ki", "result": 0.022, "unit": "nM"}]}
{"smiles": "C[C@]1(N2CCc3c(-c4cnc(N)nc4)nc(N4CCOCC4)nc32)CCN(C(=O)[C@@](C)(N)C(F)(F)F)C1.Cl", "note": "[Example 311, (2R)-2-amino-1-{(3S)-3-[4-(2-aminopyrimidin-5-yl)-2-(morpholin-4-yl)-5,6-dihydro-7H-pyrrolo[2,3-d]pyrimidin-7-yl]-3-methylpyrrolidin-1-yl}-3,3,3-trifluoro-2-methylpropan-1-one hydrochloride]", "values": [{"measurement": "PI3KA_Act Ki", "result": 0.054, "unit": "nM"}]}
{"smiles": "C[C@]1(N2CCc3c(-c4cnc(N)nc4)nc(N4CCOCC4)nc32)CCN(C(=O)[C@](C)(N)C(F)(F)F)C1.Cl", "note": "[Example 312, (2S)-2-amino-1-{(3S)-3-[4-(2-aminopyrimidin-5-yl)-2-(morpholin-4-yl)-5,6-dihydro-7H-pyrrolo[2,3-d]pyrimidin-7-yl]-3-methylpyrrolidin-1-yl}-3,3,3-trifluoro-2-methylpropan-1-one hydrochloride]", "values": [{"measurement": "PI3KA_Act Ki", "result": 0.037, "unit": "nM"}]}
{"smiles": "C[C@]1(N2CCc3c(-c4cnc(N)nc4)nc(N4CCOCC4)nc32)CCN(C(=O)[C@@H](N)C(F)(F)F)C1.Cl", "note": "[Example 313, (2R)-2-amino-1-{(3S)-3-[4-(2-aminopyrimidin-5-yl)-2-(morpholin-4-yl)-5,6-dihydro-7H-pyrrolo[2,3-d]pyrimidin-7-yl]-3-methylpyrrolidin-1-yl}-3,3,3-trifluoropropan-1-one hydrochloride]", "values": [{"measurement": "PI3KA_Act Ki", "result": 0.128, "unit": "nM"}]}
{"smiles": "C[C@]1(N2CCc3c(-c4cnc(N)nc4)nc(N4CCOCC4)nc32)CCN(C(=O)[C@H](N)C(F)(F)F)C1.Cl", "note": "[Example 314, (2S)-2-amino-1-{(3S)-3-[4-(2-aminopyrimidin-5-yl)-2-(morpholin-4-yl)-5,6-dihydro-7H-pyrrolo[2,3-d]pyrimidin-7-yl]-3-methylpyrrolidin-1-yl}-3,3,3-trifluoropropan-1-one hydrochloride]", "values": [{"measurement": "PI3KA_Act Ki", "result": "<0.018", "unit": "nM"}]}
{"smiles": "CC(C(N)=O)C(=O)N1CC[C@](C)(N2CCc3c(-c4cnc(N)nc4)nc(N4CCOCC4)nc32)C1", "note": "(stereo partly drawn) [Example 315, 3-{(3S)-3-[4-(2-aminopyrimidin-5-yl)-2-(morpholin-4-yl)-5,6-dihydro-7H-pyrrolo[2,3-d]pyrimidin-7-yl]-3-methylpyrrolidin-1-yl}-2-methyl-3-oxopropanamide]", "values": [{"measurement": "PI3KA_Act Ki", "result": "<0.018", "unit": "nM"}]}
{"smiles": "CC(C)(C(N)=O)C(=O)N1CC[C@](C)(N2CCc3c(-c4cnc(N)nc4)nc(N4CCOCC4)nc32)C1", "note": "[Example 318, 3-{(3S)-3-[4-(2-aminopyrimidin-5-yl)-2-(morpholin-4-yl)-5,6-dihydro-7H-pyrrolo[2,3-d]pyrimidin-7-yl]-3-methylpyrrolidin-1-yl}-2,2-dimethyl-3-oxopropanamide]", "values": [{"measurement": "PI3KA_Act Ki", "result": 0.076, "unit": "nM"}]}
